Data taken from patent publication US7345096B2, “Use of norepinephrine reuptake modulators for preventing and treating vasomotor symptoms” (Wyeth, priority 2002, dated 2008).

Columns and labels:
[1] = system: naloxone-induced flush (tail skin temperature); experiment: Morphine-dependent rat model of hot flush (MD model); conditions: for ED50: Rattus norvegicus, read-out: ED50 value, abatement of naloxone-induced flush; for effect on naloxone-induced flush at maximal flush: 1 hour prior to naloxone, 15 minutes post-naloxone
Experimental: (§1) Dosinq: All doses were prepared based on mg/kg.
(§2) Animals: Ovariectomized Sprague-Dawley rats (180-220 g) were obtained from a commercial vendor (Taconic, Germantown, N.Y.) and individually housed under 12 hours light/dark cycle in a room maintained at 25° C. Animals were provided with standard rat chow and water ad libitum.
Morphine-dependent model: Ovariectomized rats were injected once daily for 8-9 days with vehicle to minimize stress responses and then administered compound(s) on test day. On day 4 of dosing, morphine dependence was induced by sc implantation of two slow-release morphine pellets (75 mg/pellet) in the dorsal scapular region. […] Four to six days after implantation, morphine withdrawal was induced with an opioid antagonist (naloxone) that causes a transient increase in TST. […] Rats were mildly sedated with ketamine and a thermistor connected to a MacLab data acquisition system was taped to the base of the tail. Tail skin temperature was then monitored continuously for 35 minutes to establish a baseline temperature. Naloxone was subsequently administered and TST was measured for an additional 35 to 60 minutes (total recording time 70 to 95 minutes).
Statistical analysis: To analyze changes in TST induced by naloxone in morphine-dependent rats, all data were analyzed using a two factor repeated measure ANOVA for “treatment” and “time.” The model was fit to test whether there were significant differences in the responses between treatment groups. Naloxone administration is designated as time zero and data is then analyzed at 5 minute intervals. The first three readings were averaged and used as baseline TST scores. All data were analyzed as ΔTST (TST for each time point—baseline). Multiple comparisons (LSD p-values) among the treatment groups at each time point were used for the analysis. Efficacy of hot flush abatement was determined by evaluating statistical differences at the peak response time of 15 minutes post-naloxone, when the maximal change in TST is observed. A customized SAS-excel (SAS Institute, Cary, N.C.) application was used applying a four parameter logistic model to determine ED50 values. A logistic dose transformation was performed on ΔTST. Maximum flush (ΔTST at 15 minutes post-naloxone) was used in the analysis and the minimum was locked at zero.

[2] = system: tail skin temperature during active (dark) phase; experiment: OVX-induced thermoregulatory dysfunction telemetry model
Experimental: as §1, §2
A temperature and physical activity transmitter (PhysioTel TA10TA-F40, Data Sciences International) was implanted subcutaneously in the dorsal scapular region and the tip of the temperature probe was tunneled subcutaneously 2.5 cm beyond the base of the tail. After a 7-day recovery period, TST readings were continuously recorded for the remainder of the study. Tail skin temperature readings were collected from each animal every 5 minutes with values obtained over a 10 second sampling period. The day before test day, an average baseline TST value was calculated for each animal by averaging temperature readings recorded during the 12 hours active (dark) phase. In these studies, animals were dosed approximately 1 hour prior to the onset of dark cycle.
Evaluation of a compound's ability to restore normal lowering of TST in the telemetry model was analyzed using hourly TST values calculated for each animal by averaging the 12 temperature readings obtained every 5 minutes over that recording time. To analyze ΔTST in the telemetry model, a two factors repeated measure ANOVA was performed. The model used for analysis was ΔTST=GRP (group)+HR (hours)+GRP*HR+BASELINE. Thus, the reported least squares means are the expected mean values as if both groups had the same baseline value. Post-hoc tests of hourly GRP*HR samples are t-tests of the difference between groups for each hour. To be conservative, a result was not considered significant unless the p-value was <0.025. All analyses were performed using SAS PROC MIXED (SAS, Carey, N.C.).

Compound: CN1CCN(CC(c2cccc(Cl)c2)C2(O)CCCCC2)CC1 (racemic) [1-[1-(3-chlorophenyl)-2-(4-methyl-1-piperazinyl)ethyl]cyclohexanol]
- changes in TST over time after naloxone ([1]; dose response, sc): dose-dependently abate the naloxone-induced flush

Compound: CN(C)CC(c1ccc(O)cc1)C1(O)CCCCC1 (centres unmarked) [DVS-233, O-desmethyl-venlafaxine]
- changes in TST over time ([2]; 60 mg/kg sc): significantly and transiently decreases TST during the active phase
- ED50 ([1]; sc): 30 mg/kg

Compound: CN(C)CC(c1cccc(Cl)c1)C1(O)CCCCC1 (centres unmarked) [WY-781]
- effect on naloxone-induced flush at maximal flush ([1]; 30 mg/kg intraperitoneally): abated the naloxone-induced flush

Compound: CN(C)CC(c1cccc(C(F)(F)F)c1)C1(O)CCCCC1 (centres unmarked) [WY-867]
- effect on naloxone-induced flush at maximal flush ([1]; 30 mg/kg intraperitoneally): abated the naloxone-induced flush

Compound: CCC1(c2cnc[nH]2)Cc2ccccc2C1 [atipamezole]
- changes in TST after naloxone vs vehicle ([1]; atipamezole 0.3 mg/kg sc alone, 55 minutes prior to naloxone): not significantly different from vehicle treated rats

Compound: CNCCCN1c2ccccc2CCc2ccccc21 [desipramine]
- changes in TST over time ([2]; 10 mg/kg sc): significantly decreases TST over the entire length of the active phase
- abatement of naloxone-induced flush ([1]; 1 mg/kg sc, 40 minutes prior to naloxone, alone): approximately 50%
- abatement of hot flush ([1]; 3 mg/kg desipramine co-administered with 10 mg/kg dose of SRI): 100%
- ED50 ([1]; sc): 1 mg/kg
- effect on naloxone-induced flush at maximal flush ([1]; dose response, sc): dose-dependently abates the naloxone-induced flush
- reduction of TST compared to vehicle treated rats in naloxone-induced hot flush ([1]; low dose): 50%

Compound: CNCCC(Oc1ccc(C(F)(F)F)cc1)c1ccccc1 (centres unmarked) [fluoxetine]
- effect on naloxone-induced flush ([1]; fluoxetine 10 mg/kg sc alone): did not abate the naloxone-induced flush

Compound: CCOc1ccccc1OC(c1ccccc1)C1CNCCO1 (centres unmarked) [reboxetine]
- changes in TST over time after naloxone ([1]; dose response, sc): dose-dependently abate the naloxone-induced flush
- effect on naloxone-induced flush at maximal flush ([1]; dose response, sc): dose-dependently abates the naloxone-induced flush

Compound: COc1ccc(C(CN(C)C)C2(O)CCCCC2)cc1 (centres unmarked) [venlafaxine]
- changes in TST over time ([2]; 15 mg/kg sc): significantly and transiently decreased TST during the active phase
- effect on elevated naloxone-dependent hot flush induced by atipamezole ([1]; rat, in vivo): able to alleviate
